Data taken from patent publication US10131652B2, “Pyrimidinyloxy benzene derivatives as herbicides” (E. I. DU PONT DE NEMOURS AND COMPANY, priority 2014, dated 2018).
Like-named read-outs stand apart in the source and are kept apart here.

Legend:
Test in all cases: Test F pre-/postemergence plant response
Assay type in all cases: in vivo
[1] = test system: barnyardgrass (Echinochloa crus-galli); conditions: Echinochloa crus-galli, scale 0 to 100, read-out: Plant response rating, Barnyardgrass
Summary of the method: (§1)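 In a greenhouse, compounds carried in a non-phytotoxic surfactant-containing solvent mixture were applied to soil at planting and to young 1- to 4-leaf plants. About two to three weeks (14 to 21 days) afterward, each species was compared with controls and rated visually from 0 to 100.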

[2] = test system: dayflower (Virginia (VA) dayflower, Commelina virginica); conditions: Commelina virginica, scale 0 to 100, read-out: Plant response rating, Dayflower, VA
Summary of the method: as §1

[3] = test system: arrowleaf sida (Sida rhombifolia); conditions: Sida rhombifolia, scale 0 to 100, read-out: Plant response rating, Arrowleaf Sida
Summary of the method: as §1

[4] = test system: johnsongrass (Sorghum halepense); conditions: Sorghum halepense, pre-emergence, scale 0 to 100, read-out: Plant response rating, Johnsongrass
Summary of the method: as §1

[5] = test system: large (Lg) crabgrass (Digitaria sanguinalis); conditions: Digitaria sanguinalis, pre-emergence, scale 0 to 100, read-out: Plant response rating, Crabgrass, Large
Summary of the method: as §1

[6] = test system: velvetleaf (Abutilon theophrasti); conditions: Abutilon theophrasti, pre-emergence, scale 0 to 100, read-out: Plant response rating, Velvetleaf
Summary of the method: as §1

[7] = test system: hairy beggarticks (Bidens pilosa); conditions: Bidens pilosa, scale 0 to 100, read-out: Plant response rating, Beggarticks
Summary of the method: as §1

[8] = test system: yellow nutsedge (Cyperus esculentus); conditions: Cyperus, pre-emergence, scale 0 to 100, read-out: Plant response rating, Nutsedge, Yellow
Summary of the method: as §1

[9] = test system: waterhemp (common waterhemp, Amaranthus rudis); conditions: Amaranthus tuberculatus, scale 0 to 100, read-out: Plant response rating, Waterhemp
Summary of the method: as §1

soybean (Glycine max) = conditions: Glycine max, scale 0 to 100, read-out: Plant response rating, Soybean
Summary of the method: as §1

[10] = test system: wild poinsettia (Euphorbia heterophylla); conditions: Euphorbia heterophylla, scale 0 to 100, read-out: Plant response rating, Poinsettia, Wild
Summary of the method: as §1

[11] = test system: field bindweed (Convolvulus arvensis); conditions: Convolvulus arvensis, scale 0 to 100, read-out: Plant response rating, Field Bindweed
Summary of the method: as §1

[12] = test system: goosegrass (Eleusine indica); conditions: Eleusine indica, pre-emergence, scale 0 to 100, read-out: Plant response rating, Goosegrass
Summary of the method: as §1

[13] = test system: giant foxtail (Setaria faberii); conditions: Setaria faberi, pre-emergence, scale 0 to 100, read-out: Plant response rating, Foxtail, Giant
Summary of the method: as §1

[14] = test system: surinam grass (Brachiaria decumbens); conditions: Urochloa decumbens, pre-emergence, scale 0 to 100, read-out: Plant response rating, Surinam Grass
Summary of the method: as §1

[15] = test system: sandbur (southern sandbur, Cenchrus echinatus); conditions: Cenchrus echinatus, scale 0 to 100, read-out: Plant response rating, Sandbur
Summary of the method: as §1

[16] = post-emergence, 8 g ai/ha Postemergence
[17] = post-emergence, 16 g ai/ha Postemergence
[18] = post-emergence, 31 g ai/ha Postemergence
[19] = post-emergence, 62 g ai/ha Postemergence
[20] = post-emergence, 125 g ai/ha Postemergence
[21] = pre-emergence, 8 g ai/ha Preemergence
[22] = pre-emergence, 16 g ai/ha Preemergence
[23] = pre-emergence, 31 g ai/ha Preemergence
[24] = pre-emergence, 62 g ai/ha Preemergence
[25] = pre-emergence, 125 g ai/ha Preemergence

FC(F)(F)c1cc(-c2ccccc2Oc2ncc(Cl)cn2)no1 [Compound 200, 5-chloro-2-[2-[5-(trifluoromethyl)-3-isoxazolyl]phenoxy]pyrimidine] showed a pest or weed control at 8 g/ha [1, 16] of 0%, a pest or weed control at 16 g/ha [1, 17] of 0% and a pest or weed control at 31 g/ha [1, 18] of 0%. For the same compound, the pest or weed control at 62 g/ha [1, 19] was 15%, the pest or weed control at 125 g/ha [1, 20] was 25% and the pest or weed control at 8 g/ha [1, 21] was 0%. For the same compound, the pest or weed control at 16 g/ha [1, 22] was 0%, the pest or weed control at 31 g/ha [1, 23] was 0% and the pest or weed control at 62 g/ha [1, 24] was 30%. The pest or weed control at 125 g/ha [1, 25] was 60%, the pest or weed control at 8 g/ha [2, 16] was 0% and the pest or weed control at 16 g/ha [2, 17] was 0%. It also gave a pest or weed control at 31 g/ha [2, 18] of 25%, a pest or weed control at 62 g/ha [2, 19] of 15% and a pest or weed control at 125 g/ha [2, 20] of 35%. For the same compound, the pest or weed control at 8 g/ha [2, 21] was 0%, the pest or weed control at 16 g/ha [2, 22] was 15% and the pest or weed control at 31 g/ha [2, 23] was 50%. The pest or weed control at 62 g/ha [2, 24] was 70%, the pest or weed control at 125 g/ha [2, 25] was 90% and the pest or weed control at 8 g/ha [3, 16] was 65%. It also gave a pest or weed control at 16 g/ha [3, 17] of 75%, a pest or weed control at 31 g/ha [3, 18] of 85% and a pest or weed control at 62 g/ha [3, 19] of 95%. It also gave a pest or weed control at 125 g/ha [3, 20] of 95%, a pest or weed control at 8 g/ha [3, 21] of 0% and a pest or weed control at 16 g/ha [3, 22] of 65%. The pest or weed control at 31 g/ha [3, 23] was 100%, the pest or weed control at 62 g/ha [3, 24] was 100% and the pest or weed control at 125 g/ha [3, 25] was 100%. It also gave a pest or weed control at 8 g/ha ([4]; 8 g ai/ha Preemergence) of 0%, a pest or weed control at 16 g/ha ([4]; 16 g ai/ha Preemergence) of 0% and a pest or weed control at 31 g/ha ([4]; 31 g ai/ha Preemergence) of 5%. It also gave a pest or weed control at 125 g/ha ([4]; 125 g ai/ha Preemergence) of 90%, a pest or weed control at 62 g/ha ([4]; Preemergence) of 35% and a pest or weed control at 8 g/ha ([5]; 8 g ai/ha Preemergence) of 0%. For the same compound, the pest or weed control at 16 g/ha ([5]; 16 g ai/ha Preemergence) was 50%, the pest or weed control at 31 g/ha ([5]; 31 g ai/ha Preemergence) was 85% and the pest or weed control at 62 g/ha ([5]; 62 g ai/ha Preemergence) was 95%. The pest or weed control at 125 g/ha ([5]; 125 g ai/ha Preemergence) was 100%, the pest or weed control at 8 g/ha ([6]; 8 g ai/ha Preemergence) was 0% and the pest or weed control at 16 g/ha ([6]; 16 g ai/ha Preemergence) was 25%. It also gave a pest or weed control at 31 g/ha ([6]; 31 g ai/ha Preemergence) of 80%, a pest or weed control at 125 g/ha ([6]; 125 g ai/ha Preemergence) of 100% and a pest or weed control at 62 g/ha ([6]; Preemergence) of 100%. For the same compound, the pest or weed control at 8 g/ha [7, 16] was 0%, the pest or weed control at 16 g/ha [7, 17] was 0% and the pest or weed control at 31 g/ha [7, 18] was 5%. For the same compound, the pest or weed control at 62 g/ha [7, 19] was 10%, the pest or weed control at 125 g/ha [7, 20] was 10% and the pest or weed control at 8 g/ha [7, 21] was 0%. The pest or weed control at 16 g/ha [7, 22] was 0%, the pest or weed control at 31 g/ha [7, 23] was 0% and the pest or weed control at 62 g/ha [7, 24] was 0%. The pest or weed control at 125 g/ha [7, 25] was 0%, the pest or weed control at 8 g/ha ([8]; 8 g ai/ha Preemergence) was 0% and the pest or weed control at 16 g/ha ([8]; 16 g ai/ha Preemergence) was 0%. The pest or weed control at 31 g/ha ([8]; 31 g ai/ha Preemergence) was 0%, the pest or weed control at 125 g/ha ([8]; 125 g ai/ha Preemergence) was 35% and the pest or weed control at 62 g/ha ([8]; Preemergence) was 10%. The pest or weed control at 8 g/ha [9, 16] was 75%, the pest or weed control at 16 g/ha [9, 17] was 80% and the pest or weed control at 31 g/ha [9, 18] was 95%. It also gave a pest or weed control at 62 g/ha [9, 19] of 98%, a pest or weed control at 125 g/ha [9, 20] of 100% and a pest or weed control at 8 g/ha [9, 21] of 70%. It also gave a pest or weed control at 16 g/ha [9, 22] of 98%, a pest or weed control at 31 g/ha [9, 23] of 100% and a pest or weed control at 125 g/ha [9, 25] of 100%. The pest or weed control at 62 g/ha ([9]; pre-emergence, Preemergence) was 100%, the plant injury at 8 g/ha (soybean (Glycine max); [16]) was 15% and the plant injury at 16 g/ha (soybean (Glycine max); [17]) was 20%. It also gave a plant injury at 31 g/ha (soybean (Glycine max); [18]) of 40%, a plant injury at 62 g/ha (soybean (Glycine max); [19]) of 65% and a plant injury at 125 g/ha (soybean (Glycine max); [20]) of 90%. For the same compound, the plant injury at 8 g/ha (soybean (Glycine max); [21]) was 0%, the plant injury at 16 g/ha (soybean (Glycine max); [22]) was 0% and the plant injury at 31 g/ha (soybean (Glycine max); [23]) was 20%. It also gave a plant injury at 125 g/ha (soybean (Glycine max); [25]) of 50%, a plant injury at 62 g/ha (soybean (Glycine max); pre-emergence, Preemergence) of 30% and a pest or weed control at 8 g/ha [10, 16] of 35%. The pest or weed control at 16 g/ha [10, 17] was 50%, the pest or weed control at 31 g/ha [10, 18] was 40% and the pest or weed control at 62 g/ha [10, 19] was 60%. For the same compound, the pest or weed control at 125 g/ha [10, 20] was 80%, the pest or weed control at 8 g/ha [10, 21] was 0% and the pest or weed control at 16 g/ha [10, 22] was 0%. For the same compound, the pest or weed control at 31 g/ha [10, 23] was 20%, the pest or weed control at 125 g/ha [10, 25] was 70% and the pest or weed control at 62 g/ha ([10]; pre-emergence, Preemergence) was 60%. The pest or weed control at 8 g/ha [11, 16] was 20%, the pest or weed control at 16 g/ha [11, 17] was 20% and the pest or weed control at 31 g/ha [11, 18] was 35%. The pest or weed control at 62 g/ha [11, 19] was 35%, the pest or weed control at 125 g/ha [11, 20] was 35% and the pest or weed control at 8 g/ha [11, 21] was 0%. For the same compound, the pest or weed control at 16 g/ha [11, 22] was 0%, the pest or weed control at 31 g/ha [11, 23] was 30% and the pest or weed control at 62 g/ha [11, 24] was 30%. It also gave a pest or weed control at 125 g/ha [11, 25] of 30%, a pest or weed control at 8 g/ha ([12]; 8 g ai/ha Preemergence) of 10% and a pest or weed control at 16 g/ha ([12]; 16 g ai/ha Preemergence) of 70%. For the same compound, the pest or weed control at 31 g/ha ([12]; 31 g ai/ha Preemergence) was 80%, the pest or weed control at 125 g/ha ([12]; 125 g ai/ha Preemergence) was 98% and the pest or weed control at 62 g/ha ([12]; Preemergence) was 95%. The pest or weed control at 8 g/ha ([13]; 8 g ai/ha Preemergence) was 0%, the pest or weed control at 16 g/ha ([13]; 16 g ai/ha Preemergence) was 35% and the pest or weed control at 31 g/ha ([13]; 31 g ai/ha Preemergence) was 65%. The pest or weed control at 62 g/ha ([13]; 62 g ai/ha Preemergence) was 100%, the pest or weed control at 125 g/ha ([13]; 125 g ai/ha Preemergence) was 100% and the pest or weed control at 8 g/ha ([14]; 8 g ai/ha Preemergence) was 0%. For the same compound, the pest or weed control at 16 g/ha ([14]; 16 g ai/ha Preemergence) was 0%, the pest or weed control at 31 g/ha ([14]; 31 g ai/ha Preemergence) was 0% and the pest or weed control at 125 g/ha ([14]; 125 g ai/ha Preemergence) was 35%. It also gave a pest or weed control at 62 g/ha ([14]; Preemergence) of 10%, a pest or weed control at 8 g/ha [15, 16] of 0% and a pest or weed control at 16 g/ha [15, 17] of 0%. For the same compound, the pest or weed control at 31 g/ha [15, 18] was 0%, the pest or weed control at 62 g/ha [15, 19] was 0% and the pest or weed control at 125 g/ha [15, 20] was 5%. The pest or weed control at 8 g/ha [15, 21] was 0%, the pest or weed control at 16 g/ha [15, 22] was 5% and the pest or weed control at 31 g/ha [15, 23] was 5%. For the same compound, the pest or weed control at 125 g/ha [15, 25] was 75% and the pest or weed control at 62 g/ha ([15]; pre-emergence, Preemergence) was 40%.
